Test results published in patent EP0960338B1, “DIAGNOSTIC METHODS AND COMPOSITIONS BASED ON THE DISTRIBUTION OF RAD51” (Yale University, priority 1997, dated 1998).
“And” between values parts separate entries of the source, which are not always exact repeats. Equal values may be shown once.

Experiments:
TGR-1 cells [1] = test: Immunofluorescent staining of Rad51 foci in nuclei and micronuclei; assay type: cell-based, rat
Procedure: (§1) Cell Culture. The sources of the cell lines were as follows. Rat TGR-1 cells, J. Sedivy. Brown University; mouse 3T3-Swiss cells, ATCC; human 293 kidney cells, ATCC; human teratoma cells, B. King, Yale University; human LNL8 fibroblasts, S. Meyn, Yale: human XPA and XPF fibroblasts, P Glazer, Yale.
(§2) Monolayer cultures were grown in D-MEM medium supplemented with 10% fetal bovine serum and antibiotics.
(§3) Immunofluorescent Staining.
(§4) Digital Imaging Microscopy.

LNL8 fibroblasts = test: as above; assay type: cell-based, human
Procedure: as §1, §2, §3, §4

TGR-1 cells [2] = tested on: TGR-1 cells
TGR-1 cells [3] = test: Apoptosis by fluorescence in situ end labeling (FISEL); assay type: cell-based, rat; conditions: for Percentage of Apoptotic Cells: FISEL+
Procedure: Fluorescence In Situ End Labeling (FISEL). FISEL detects cell death (apoptosis) in situ by quantitating DNA strand breaks in individual nuclei. It uses terminal transferase (TdT) to label the 3'-ends in fragmented genomic DNA with biotinylated nucleotide. 100 µl of reaction mix contain 1 µl (25 Units) TdT (Boehringer Mannheim), 20 µl 5xTdT buffer (supplied with the enyzme), 1 µl 0.5 mM biotin-II-dUTP, 3 µl 0.5 mM dTTP, and 75 µl ddH2O. Cytological preprations are incubated at 37°C for 1 hr with this reaction mix. Washing the slides for 3x5 min in PBS is sufficient to terminate the reaction. The incorporated biotin-dUTP is detected with rhodarnine-conjugated avidin.
Another more classical way for inducing apoptosis in vitro is the exposure of TGR-1 cells to the topoisomerase II inhibitor etoposide.

[4] = TGR-1, 10^-5 M 5-aza-dC added 24 hrs before cell harvest
[5] = LNL8, 10^-5 M 5-aza-dC added 24 hrs before cell harvest
[6] = TGR-1, 2 hrs in medium containing etoposide
[7] = TGR-1, 5 hrs in medium containing etoposide
[8] = TGR-1, 12 hrs in medium containing etoposide
[9] = TGR-1, 18 hrs in medium containing etoposide
[10] = TGR-1, 24 hrs in medium containing etoposide
[11] = TGR-1, 36 hrs in medium containing etoposide

SMILES: Nc1ncn([C@H]2C[C@H](O)[C@@H](CO)O2)c(=O)n1 [5-aza-dC, 5-azadeoxycytidine]
- cells displaying MN with focally concentrated Rad51 protein (TGR-1 cells [1]; Rat TGR-1 cultures, non-lethal doses of 5-aza-dC, range stated jointly with LNL8): 5-10%
- Percentage of Cells with Type I Foci in Micronuclei (TGR-1 cells [1]; [4]): 4%
- Percentage of Cells with Type I Foci in Nuclei (TGR-1 cells [1]; [4]): 5%
- Percentage of Cells with Type II Foci in Micronuclei (TGR-1 cells [1]; [4]): 4%
- Percentage of Cells with Type II Foci in Nuceli (TGR-1 cells [1]; [4]): 1%
- Percentage of Cells without Foci (TGR-1 cells [1]; [4]): 86%
- Percentage of Cells with Type I Foci in Micronuclei (LNL8 fibroblasts; [5]): 1%
- Percentage of Cells with Type I Foci in Nuclei (LNL8 fibroblasts; [5]): 3%
- Percentage of Cells with Type II Foci in Micronuclei (LNL8 fibroblasts; [5]): 5%
- Percentage of Cells with Type II Foci in Nuceli (LNL8 fibroblasts; [5]): 2%
- Percentage of Cells without Foci (LNL8 fibroblasts; [5]): 89%
- cells displaying MN with focally concentrated Rad51 protein (LNL8 fibroblasts; human LNL8 fibroblast cultures, non-lethal doses of 5-aza-dC, range stated jointly with TGR-1): 5-10%

SMILES: CN[C@H]1CCc2cc(OC)c(OC)c(OC)c2-c2ccc(OC)c(=O)cc21 [Colcemid, colcemid]
- Percentage of Cells Showing Rad 51+/ FISEL+ (TGR-1 cells [2]): 0% and 1% and 6% and 4%
- Percentage of Cells Showing Rad51-/ FISEL- (TGR-1 cells [2]): 85% and 54% and 45% and 43%
- induced MN containing very brightly fluorescing Rad51 foci (TGR-1 cells [2]): over 30%

SMILES: COc1cc([C@@H]2c3cc4c(cc3[C@@H](O[C@@H]3O[C@@H]5CO[C@@H](C)O[C@H]5[C@H](O)[C@H]3O)[C@H]3COC(=O)[C@H]23)OCO4)cc(OC)c1O [etoposide]
- Percentage of Cells with Type I Foci in Micronuclei (TGR-1 cells [1]; [6]): 1%
- Percentage of Cells with Type I Foci in Nuclei (TGR-1 cells [1]; [6]): 4%
- Percentage of Cells with Type II Foci in Micronuclei (TGR-1 cells [1]; [6]): 2%
- Percentage of Cells with Type II Foci in Nuclei (TGR-1 cells [1]; [6]): 1%
- Percentage of Cells without Foci (TGR-1 cells [1]; [6]): 92%
- Percentage of Cells with Type I Foci in Micronuclei (TGR-1 cells [1]; [7]): 2%
- Percentage of Cells with Type I Foci in Nuclei (TGR-1 cells [1]; [7]): 3%
- Percentage of Cells with Type II Foci in Micronuclei (TGR-1 cells [1]; [7]): 2%
- Percentage of Cells with Type II Foci in Nuclei (TGR-1 cells [1]; [7]): 1%
- Percentage of Cells without Foci (TGR-1 cells [1]; [7]): 92%
- Percentage of Cells with Type I Foci in Micronuclei (TGR-1 cells [1]; [8]): 2%
- Percentage of Cells with Type I Foci in Nuclei (TGR-1 cells [1]; [8]): 8%
- Percentage of Cells with Type II Foci in Micronuclei (TGR-1 cells [1]; [8]): 2%
- Percentage of Cells with Type II Foci in Nuclei (TGR-1 cells [1]; [8]): 1%
- Percentage of Cells without Foci (TGR-1 cells [1]; [8]): 87%
- Percentage of Cells with Type I Foci in Micronuclei (TGR-1 cells [1]; [9]): 8%
- Percentage of Cells with Type I Foci in Nuclei (TGR-1 cells [1]; [9]): 3%
- Percentage of Cells with Type II Foci in Micronuclei (TGR-1 cells [1]; [9]): 9%
- Percentage of Cells with Type II Foci in Nuclei (TGR-1 cells [1]; [9]): 1%
- Percentage of Cells without Foci (TGR-1 cells [1]; [9]): 79%
- Percentage of Cells with Type I Foci in Micronuclei (TGR-1 cells [1]; [10]): 2%
- Percentage of Cells with Type I Foci in Nuclei (TGR-1 cells [1]; [10]): 2%
- Percentage of Cells with Type II Foci in Micronuclei (TGR-1 cells [1]; [10]): 8%
- Percentage of Cells with Type II Foci in Nuclei (TGR-1 cells [1]; [10]): 6%
- Percentage of Cells without Foci (TGR-1 cells [1]; [10]): 82%
- Percentage of Cells with Type I Foci in Micronuclei (TGR-1 cells [1]; [11]): 5%
- Percentage of Cells with Type I Foci in Nuclei (TGR-1 cells [1]; [11]): 2%
- Percentage of Cells with Type II Foci in Micronuclei (TGR-1 cells [1]; [11]): 9%
- Percentage of Cells with Type II Foci in Nuclei (TGR-1 cells [1]; [11]): 1%
- Percentage of Cells without Foci (TGR-1 cells [1]; [11]): 83%
- Percentage of Apoptotic Cells (TGR-1 cells [3]; 12 hrs in medium containing etoposide): 17%
- Percentage of Apoptotic Cells (TGR-1 cells [3]; 18 hrs in medium containing etoposide): 24%
- Percentage of Apoptotic Cells (TGR-1 cells [3]; 24 hrs in medium containing etoposide): 33%
- cells showing genome fragmentation, stained FISEL-positively (TGR-1 cells [3]; 36 hrs after adding etoposide to the culture medium): half
- Percentage of Apoptotic Cells (TGR-1 cells [3]; 36 hrs in medium containing etoposide): 47%
